In PubChem BioAssay AID1919014 (Molecular Pharmacology Branch, DTP, NCI, 2023):

System: NCI-H1341 complex spheroids, percent test/control
Experiment: Anticancer human tumor NCI-H1341 cell line growth inhibition [AhR];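 further: spheroids exposed to agents for seven days before readout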
Settings: for IC50: curve of first compound; for viability, T/C: stronger effect = lower value
Summary of the method: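 Complex tumor spheroids co-cultured with HUVEC and human MSC stroma; AhR antagonists tested in combination with standard-of-care and investigational agents. Top concentration at or near clinical Cmax (else 10 microM), half-log dilutions; growth expressed as percent test/control.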

[1] = second compound 0.1 µM, first compound 0.000949 µM
[2] = second compound 0.1 µM, first compound 0.003 µM
[3] = second compound 0.1 µM, first compound 0.00949 µM
[4] = second compound 0.1 µM, first compound 0.03 µM
[5] = second compound 0.1 µM, first compound 0.0949 µM
[6] = second compound 0.1 µM, first compound 0.3 µM
[7] = second compound 0.316 µM, first compound 0.000949 µM
[8] = second compound 0.316 µM, first compound 0.003 µM
[9] = second compound 0.316 µM, first compound 0.00949 µM
[10] = second compound 0.316 µM, first compound 0.03 µM
[11] = second compound 0.316 µM, first compound 0.0949 µM
[12] = second compound 0.316 µM, first compound 0.3 µM
[13] = second compound 1 µM, first compound 0.000949 µM
[14] = second compound 1 µM, first compound 0.003 µM
[15] = second compound 1 µM, first compound 0.00949 µM
[16] = second compound 1 µM, first compound 0.03 µM
[17] = second compound 1 µM, first compound 0.0949 µM
[18] = second compound 1 µM, first compound 0.3 µM
[19] = second compound 3.16 µM, first compound 0.000949 µM
[20] = second compound 3.16 µM, first compound 0.003 µM
[21] = second compound 3.16 µM, first compound 0.00949 µM
[22] = second compound 3.16 µM, first compound 0.03 µM
[23] = second compound 3.16 µM, first compound 0.0949 µM
[24] = second compound 3.16 µM, first compound 0.3 µM
[25] = second compound 10 µM, first compound 0.000949 µM
[26] = second compound 10 µM, first compound 0.003 µM
[27] = second compound 10 µM, first compound 0.00949 µM
[28] = second compound 10 µM, first compound 0.03 µM
[29] = second compound 10 µM, first compound 0.0949 µM
[30] = second compound 10 µM, first compound 0.3 µM

## CC(C)CC(NC(=O)C(Cc1ccccc1)NC(=O)c1cnccn1)B(O)O (stereo not given) + Cc1ccccc1N=Nc1ccc(NC(=O)c2ccnn2C)c(C)c1
Second compound 0.1 µM
  IC50: 5.09 nM
Second compound 0.316 µM
  IC50: 5.12 nM
Second compound 1 µM
  IC50: 4.96 nM
Second compound 3.16 µM
  IC50: 4.3 nM
Second compound 10 µM
  IC50: 3.45 nM
[1]
  viability, T/C: 116%
[2]
  viability, T/C: 90.2%
[3]
  viability, T/C: 2.67%
[4]
  viability, T/C: 0.15%
[5]
  viability, T/C: 0.06%
[6]
  viability, T/C: 0.19%
[7]
  viability, T/C: 92.6%
[8]
  viability, T/C: 91.1%
[9]
  viability, T/C: 2.6%
[10]
  viability, T/C: 0.07%
[11]
  viability, T/C: 0.07%
[12]
  viability, T/C: 0.15%
[13]
  viability, T/C: 83%
[14]
  viability, T/C: 89.7%
[15]
  viability, T/C: 3.18%
[16]
  viability, T/C: 0.12%
[17]
  viability, T/C: 0.08%
[18]
  viability, T/C: 0.18%
[19]
  viability, T/C: 85%
[20]
  viability, T/C: 71.6%
[21]
  viability, T/C: 2.5%
[22]
  viability, T/C: 0.06%
[23]
  viability, T/C: 0.09%
[24]
  viability, T/C: 0.2%
[25]
  viability, T/C: 50.5%
[26]
  viability, T/C: 62.5%
[27]
  viability, T/C: 2.63%
[28]
  viability, T/C: 0.39%
[29]
  viability, T/C: 0.18%
[30]
  viability, T/C: 0.31%

## CCc1c2c(nc3ccc(O)cc13)-c1cc3c(c(=O)n1C2)COC(=O)[C@]3(O)CC + Cc1ccccc1N=Nc1ccc(NC(=O)c2ccnn2C)c(C)c1
Second compound 0.1 µM
  IC50: 13.1 nM
Second compound 0.316 µM
  IC50: 25.3 nM
Second compound 1 µM
  IC50: 17.2 nM
Second compound 3.16 µM
  IC50: 11.7 nM
Second compound 10 µM
  IC50: 9.79 nM
[1]
  viability, T/C: 107%
[2]
  viability, T/C: 67.5%
[3]
  viability, T/C: 53.4%
[4]
  viability, T/C: 44.3%
[5]
  viability, T/C: 37%
[6]
  viability, T/C: 15.3%
[7]
  viability, T/C: 92.9%
[8]
  viability, T/C: 84%
[9]
  viability, T/C: 53.2%
[10]
  viability, T/C: 49.5%
[11]
  viability, T/C: 40.1%
[12]
  viability, T/C: 16.5%
[13]
  viability, T/C: 85.5%
[14]
  viability, T/C: 74.9%
[15]
  viability, T/C: 50.3%
[16]
  viability, T/C: 43.5%
[17]
  viability, T/C: 35.5%
[18]
  viability, T/C: 13.5%
[19]
  viability, T/C: 75.7%
[20]
  viability, T/C: 58.2%
[21]
  viability, T/C: 51%
[22]
  viability, T/C: 43.5%
[23]
  viability, T/C: 29.7%
[24]
  viability, T/C: 12.1%
[25]
  viability, T/C: 54.3%
[26]
  viability, T/C: 48.9%
[27]
  viability, T/C: 48.4%
[28]
  viability, T/C: 44.8%
[29]
  viability, T/C: 22.6%
[30]
  viability, T/C: 7.81%

## Nc1ccccc1NC(=O)c1ccc(CNC(=O)OCc2cccnc2)cc1 + Cc1ccccc1N=Nc1ccc(NC(=O)c2ccnn2C)c(C)c1
Second compound 0.1 µM
  IC50: 582 nM
Second compound 0.316 µM
  IC50: 604 nM
Second compound 1 µM
  IC50: 596 nM
Second compound 3.16 µM
  IC50: 647 nM
Second compound 10 µM
  IC50: 380 nM
Second compound 0.1 µM, first compound 0.0316 µM
  viability, T/C: 91.8%
Second compound 0.1 µM, first compound 0.1 µM
  viability, T/C: 84.5%
Second compound 0.1 µM, first compound 0.316 µM
  viability, T/C: 65.2%
Second compound 0.1 µM, first compound 1 µM
  viability, T/C: 37.4%
Second compound 0.1 µM, first compound 3.16 µM
  viability, T/C: 9.11%
Second compound 0.1 µM, first compound 10 µM
  viability, T/C: 0.66%
Second compound 0.316 µM, first compound 0.0316 µM
  viability, T/C: 89.9%
Second compound 0.316 µM, first compound 0.1 µM
  viability, T/C: 88.7%
Second compound 0.316 µM, first compound 0.316 µM
  viability, T/C: 70.3%
Second compound 0.316 µM, first compound 1 µM
  viability, T/C: 33.6%
Second compound 0.316 µM, first compound 3.16 µM
  viability, T/C: 9.54%
Second compound 0.316 µM, first compound 10 µM
  viability, T/C: 1.08%
Second compound 1 µM, first compound 0.0316 µM
  viability, T/C: 120%
Second compound 1 µM, first compound 0.1 µM
  viability, T/C: 98.6%
Second compound 1 µM, first compound 0.316 µM
  viability, T/C: 76.3%
Second compound 1 µM, first compound 1 µM
  viability, T/C: 30.1%
Second compound 1 µM, first compound 3.16 µM
  viability, T/C: 7.04%
Second compound 1 µM, first compound 10 µM
  viability, T/C: 0.78%
Second compound 3.16 µM, first compound 0.0316 µM
  viability, T/C: 85.9%
Second compound 3.16 µM, first compound 0.1 µM
  viability, T/C: 86.7%
Second compound 3.16 µM, first compound 0.316 µM
  viability, T/C: 62%
Second compound 3.16 µM, first compound 1 µM
  viability, T/C: 43.1%
Second compound 3.16 µM, first compound 3.16 µM
  viability, T/C: 12.5%
Second compound 3.16 µM, first compound 10 µM
  viability, T/C: 0.88%
Second compound 10 µM, first compound 0.0316 µM
  viability, T/C: 49.7%
Second compound 10 µM, first compound 0.1 µM
  viability, T/C: 53.3%
Second compound 10 µM, first compound 0.316 µM
  viability, T/C: 58.7%
Second compound 10 µM, first compound 1 µM
  viability, T/C: 37.8%
Second compound 10 µM, first compound 3.16 µM
  viability, T/C: 18.8%
Second compound 10 µM, first compound 10 µM
  viability, T/C: 3.01%
